# Laboratory results as given in patent US8658636B2, “TRPV4 antagonists” (GlaxoSmithKline, LLC, priority 2010, dated 2014).
# Target: T1, human TRPV4 (Homo sapiens, UniProt Q9HBA0)
# T1 construct: expressed in transfected cells; host or cells: HEK-293-MSR-II cells transduced with 1% BacMam virus
# Experiment: Ligand-gated assay (FLIPR calcium, Fluo4)
# Format: cell-based
# Conditions: HEK-293-MSR-II cells transduced with BacMam human TRPV4; inhibition of agonist (EC80)-induced activation; read-out: Human TRPV4 FLIPR pIC50 (converted)
# Procedure: TRP channel activation/opening results in an influx of divalent and monovalent cations including calcium. The resulting changes in intracellular calcium are monitored using a calcium selective fluorescent dye Fluo4 (MDS Analytical Technologies). Dye loaded cells were initially exposed to test compound to verify a lack of agonist activity. Cells were subsequently activated by addition of an agonist and inhibition of the agonist-induced activation was recorded. Human embryonic kidney 293 cells stably expressing the macrophage scavenger receptor class II (HEK-293-MSR-II) and transduced with 1% BacMam (J. P. Condreay, S. M. Witherspoon, W. C. Clay and T. A. Kost, Proc Natl Acad Sci 96 (1999), pp. 127-132) virus expressing the human TRPV4 gene were plated at 15000 cells/well in a volume of 50 uL in a 384 well poly-D lysine coated plate. Cells were incubated for 24 hours at 37 degrees and 5% CO2. Media was then aspirated using a Tecan Plate-washer and replaced with 20 uL of dye loading buffer: HBSS, 500 uM Brilliant Black (MDS Analytical Technologies), 2 uM Fluo-4. Dye loaded plates were then incubated in the dark at room temperature for 1-1.5 hours. 10 uL of test compound diluted in HBSS+0.01% Chaps was added to the plate, incubated for 10 min at room temperature in the dark and then 10 uL of agonist was added at a final conc. equal to the agonist EC80. Calcium release was measured using the FLIPRtetra (MDS Analytical Technologies).
# T1 sequence (Q9HBA0 whole entry): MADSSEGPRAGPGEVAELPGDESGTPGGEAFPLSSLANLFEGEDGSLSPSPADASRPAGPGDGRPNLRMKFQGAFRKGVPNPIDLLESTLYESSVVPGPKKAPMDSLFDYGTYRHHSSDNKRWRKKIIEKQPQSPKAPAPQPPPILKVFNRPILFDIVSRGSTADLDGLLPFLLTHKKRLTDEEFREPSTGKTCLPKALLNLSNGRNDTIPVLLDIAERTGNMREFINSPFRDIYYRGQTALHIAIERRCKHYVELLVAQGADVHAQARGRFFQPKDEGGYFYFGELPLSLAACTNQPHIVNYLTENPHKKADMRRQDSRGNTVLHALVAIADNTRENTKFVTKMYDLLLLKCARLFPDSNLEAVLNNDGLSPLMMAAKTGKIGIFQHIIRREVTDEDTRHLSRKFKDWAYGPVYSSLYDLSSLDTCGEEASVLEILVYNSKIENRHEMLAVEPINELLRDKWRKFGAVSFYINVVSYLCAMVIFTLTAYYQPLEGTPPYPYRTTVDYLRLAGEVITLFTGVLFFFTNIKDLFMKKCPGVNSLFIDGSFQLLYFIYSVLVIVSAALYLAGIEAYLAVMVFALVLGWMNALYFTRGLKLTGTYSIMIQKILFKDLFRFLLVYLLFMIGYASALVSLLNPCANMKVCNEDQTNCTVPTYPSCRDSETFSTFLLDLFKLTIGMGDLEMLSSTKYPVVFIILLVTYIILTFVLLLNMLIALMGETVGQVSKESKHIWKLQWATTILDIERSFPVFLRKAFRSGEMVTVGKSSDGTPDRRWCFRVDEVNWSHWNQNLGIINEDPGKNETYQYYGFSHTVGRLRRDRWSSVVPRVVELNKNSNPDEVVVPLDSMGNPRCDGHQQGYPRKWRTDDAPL
row,IC50 [nM],SMILES
1,10,"CC1CN(Cc2c(-c3cccc(C(F)(F)F)c3)nc3ccc(S(=O)(=O)C(C)C)cc3c2C(=O)N[C@H](c2ccccc2)C(F)(F)F)CCC1N1CCOCC1 (mixture of isomers) [Example 38, 6-[(1-methylethyl)sulfonyl]-3-{[3-methyl-4-(4-morpholinyl)-1-piperidinyl]methyl}-2-[3-(trifluoromethyl)phenyl]-N-[(1R)-2,2,2-trifluoro-1-phenylethyl]-4-quinolinecarboxamide]"
2,3.16,"CS(=O)(=O)c1ccc2nc(-c3cccc(C(F)(F)F)c3)c(CN3CCC(N4CCCCC4)CC3)c(C(=O)N[C@H](c3ccccc3)C(F)(F)F)c2c1 [Example 1, 3-(1,4′-bipiperidin-1′-ylmethyl)-6-(methylsulfonyl)-2-[3-(trifluoromethyl)phenyl]-N-[(1R)-2,2,2-trifluoro-1-phenylethyl]-4-quinolinecarboxamide]"
3,6.31,"CCS(=O)(=O)c1cc2c(C(=O)N[C@H](c3ccccc3)C(F)(F)F)c(CN3CCC(N4CCCCC4)CC3)c(-c3cccc(C(F)(F)F)c3)nc2cc1OC [Example 3, 3-(1,4′-bipiperidin-1′-ylmethyl)-6-(ethylsulfonyl)-7-(methyloxy)-2-[3-(trifluoromethyl)phenyl]-N-[(1R)-2,2,2-trifluoro-1-phenylethyl]-4-quinolinecarboxamide]"
4,6.31,"CC(C)Oc1cc2nc(-c3cccc(C(F)(F)F)c3)c(CN3CCC(N4CCOCC4)CC3)c(C(=O)N[C@H](c3ccccc3)C(F)(F)F)c2cc1S(C)(=O)=O [Example 20, 7-[(1-methylethyl)oxy]-6-(methylsulfonyl)-3-{[4-(4-morpholinyl)-1-piperidinyl]methyl}-2-[3-(trifluoromethyl)phenyl]-N-[(1R)-2,2,2-trifluoro-1-phenylethyl]-4-quinolinecarboxamide]"
5,3.98,"COc1cc2nc(-c3cccc(C(F)(F)F)c3)c(CN3CCC(N4CCCCC4)CC3)c(C(=O)N[C@H](c3ccccc3)C(F)(F)F)c2cc1S(=O)(=O)C(C)C [Example 21, 3-(1,4′-bipiperidin-1′-ylmethyl)-6-[(1-methylethyl)sulfonyl]-7-(methyloxy)-2-[3-(trifluoromethyl)phenyl]-N-[(1R)-2,2,2-trifluoro-1-phenylethyl]-4-quinolinecarboxamide]"
6,6.31,"COc1cc2nc(-c3cccc(C(F)(F)F)c3)c(CN3CCC(N4CCOCC4)CC3)c(C(=O)N[C@H](c3ccccc3)C(F)(F)F)c2cc1S(=O)(=O)C(C)C [Example 22, 6-[(1-methylethyl)sulfonyl]-7-(methyloxy)-3-{[4-(4-morpholinyl)-1-piperidinyl]methyl}-2-[3-(trifluoromethyl)phenyl]-N-[(1R)-2,2,2-trifluoro-1-phenylethyl]-4-quinolinecarboxamide]"
7,6.31,"CCOc1cc2nc(-c3cccc(C(F)(F)F)c3)c(CN3CCC(N4CCOCC4)CC3)c(C(=O)N[C@H](c3ccccc3)C(F)(F)F)c2cc1S(=O)(=O)C(C)C [Example 23, 7-(ethyloxy)-6-[(1-methylethyl)sulfonyl]-3-{[4-(4-morpholinyl)-1-piperidinyl]methyl}-2-[3-(trifluoromethyl)phenyl]-N-[(1R)-2,2,2-trifluoro-1-phenylethyl]-4-quinolinecarboxamide]"
8,10,"CCOc1cc2nc(-c3cccc(C(F)(F)F)c3)c(CN3CCC(N4CCOCC4)CC3)c(C(=O)N[C@H](c3ccccc3)C(F)(F)F)c2cc1S(=O)(=O)CC [Example 26, 7-(ethyloxy)-6-(ethylsulfonyl)-3-{[4-(4-morpholinyl)-1-piperidinyl]methyl}-2-[3-(trifluoromethyl)phenyl]-N-[(1R)-2,2,2-trifluoro-1-phenylethyl]-4-quinolinecarboxamide]"
